Laboratory results as given in US5422350A, “Nitrogen substituted acridine and cytochrome P450 inhibitors and methods of use” (priority 1992, dated 1995).
Where two headings read alike, the source gives them in different places.

Columns and labels:
P450 1A2 [1] = molecular target: T1, P450 1A2 (Homo sapiens, UniProt P05177); experiment: in vitro; conditions: human, microsomes
T1 sequence (P05177 2-516 limits assumed): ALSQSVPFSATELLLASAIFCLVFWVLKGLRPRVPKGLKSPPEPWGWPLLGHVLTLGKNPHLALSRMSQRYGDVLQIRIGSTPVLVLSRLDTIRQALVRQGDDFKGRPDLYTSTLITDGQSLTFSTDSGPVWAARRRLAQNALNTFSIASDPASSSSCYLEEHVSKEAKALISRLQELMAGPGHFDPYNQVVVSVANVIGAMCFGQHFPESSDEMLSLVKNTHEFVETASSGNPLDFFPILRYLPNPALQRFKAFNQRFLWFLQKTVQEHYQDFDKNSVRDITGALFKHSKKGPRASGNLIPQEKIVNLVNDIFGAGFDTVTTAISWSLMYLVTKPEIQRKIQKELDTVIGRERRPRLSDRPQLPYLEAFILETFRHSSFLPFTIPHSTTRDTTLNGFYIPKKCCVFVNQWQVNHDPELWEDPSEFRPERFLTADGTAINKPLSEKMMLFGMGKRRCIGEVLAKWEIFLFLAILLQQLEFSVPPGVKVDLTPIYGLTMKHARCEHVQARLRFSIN
Description: (§1) PHARMACOL., Vol. 42, pp. 767-772 (1990) was conducted. […] The effect of various enoxacin concentrations (8, 20, and 50 μM) on the extent of irreversible binding was examined in a separate study.

P450 1A2 [2] = experiment: in vitro
Description: as §1

[3] = Clinical drug interaction study, tacrine with cimetidine; type: in vivo, human; conditions: 40 mg tacrine with 300-mg four times a day cimetidine vs tacrine alone
From the text: A. Somogyi and M. Muirhead, "Pharmacokinetic Interactions of Cimetidine", CLIN. PHARMACOKIN., Vol. 12, pp. 321-366 (1987).

[4] = Description: (§2) Total reaction volume was 3 mL. Reactions were stopped by freezing in liquid nitrogen or dry-ice acetone. […] D. J. Waxman and L. Axaroff, "Phenobarbital induction of cytochrome P-450 Gene Expression", BIOCHEM J, Vol. 281, pp. 577-592 (1992); P. Soucek and I. Gut, supra.
P4501A2 = conditions: co-incubation with tacrine
Description: as §2

[5] = In vitro metabolism of 14C-tacrine in rat liver microsomes; conditions: for TAC: w/out NADPH
Description: as §2

rat hepatocytes = experiment: Irreversible binding of tacrine-derived radioactivity to rat hepatocytes with chloroquine; type: in vitro ADME; conditions: Tacrine alone
From the text: D. J. Back, H. S. Purba, C. […] PHARMACOL., Vol. 32, pp. 257-264 (1983). Ethoxyresorufin O-deethylation is selectively catalyzed by P450 1A2. C. Gleizes, C. […] PHARMACOL. VOL. 41, pp. 1813-1820 (1991).

P450 2D6 = experiment: Tacrine as substrate of P450 2D6: co-incubation with quinidine in human liver microsomes; type: in vitro ADME; conditions: for 1-Hydroxytacrine / Tacrine: quinidine -
From the text: U. A. Meyer, J. Gut, T. Kronbach, C. Skoda, U. T. Meier, and T. Catin, "The Molecular Mechanisms of Two Common Polymorphisms of Drug Oxidation-Evidence for Functional Changes in Cytochrome P-450 Isozymes Catalysing Bufuralol and Mephenytoin Oxidation", XENOBIOTICA, Vol 16, pp 449-464 (1986). […] PHARMACOL., Vol 37, pp 155-160 (1989).

[6] = cited from earlier work
[7] = Irreversible protein binding of 14C-tacrine-derived radioactivity, human liver microsomes
Description: as §2
C. N. Martin and R. C. Garner: "Covalent Binding In Vitro and In Vivo" in BIOCHEMICAL TOXICOLOGY: A PRACTICAL APPROACH, Eds. K. Snell and B. Mullock, IRL, Wash. D.C. pp. 109-126 (1987).

[8] = Human Prep (letter not given), w/NADPH, 60 min
[9] = MC induced Rat, w/NADPH, 60 min
[10] = Noninduced Rat, w/NADPH, 60 min
[11] = PB induced Rat, w/NADPH, 60 min

Cl.Nc1c2c(nc3ccccc13)CCCC2.O [Tacrine, 1,2,3,4-tetrahydro-9-acridinamine monohydrate monohydrochloride]
Km (P450 1A2 [1]): < 5 µM
irreversible binding of derived radioactivity to microsomal protein (P450 1A2 [2]; Table 6, deletion of NADPH): no irreversible
Tacrine equivalents irreversibly bound to 1 mg microsomal protein (P450 1A2 [2]; Table 6, tacrine 0.3 μM, enoxacin 0.0, 20 min, N = 3, SD): 0.040
Tacrine equivalents irreversibly bound to 1 mg microsomal protein (P450 1A2 [2]; tacrine 0.5 μM alone, 5 min, N = 3, SD): 0.022 ± 0.005 nmol
Tacrine equivalents irreversibly bound to 1 mg microsomal protein (P450 1A2 [2]; tacrine 0.5 μM alone, 10 min): 0.048 ± 0.006 nmol
Tacrine equivalents irreversibly bound to 1 mg microsomal protein (P450 1A2 [2]; tacrine 0.5 μM alone, 20 min): 0.096 ± 0.006 nmol
Tacrine equivalents irreversibly bound to 1 mg microsomal protein (P450 1A2 [2]; tacrine 0.5 μM alone, 45 min): 0.148 ± 0.024 nmol
higher plasma concentrations [3]: approximately 40%
1-OH [4, 8]: 0.750 nmole equivalents
4-OH [4, 8]: 0.039 nmole equivalents
POLAR UNKS [4, 8]: 0.039 nmole equivalents
UNKS [4, 8]: 0.146 nmole equivalents
TAC ([4]; Human Prep (letter not given), w/out NADPH, 60 min): 1.34 nmole equivalents
1-OH ([4]; Human Prep C, w/NADPH, 60 min): 0.599 nmole equivalents
2-OH ([4]; Human Prep C, w/NADPH, 60 min): 0.095 nmole equivalents
POLAR UNKS ([4]; Human Prep C, w/NADPH, 60 min): 0.035 nmole equivalents
UNKS ([4]; Human Prep C, w/NADPH, 60 min): 0.139 nmole equivalents
TAC ([4]; Human Prep C, w/out NADPH, 60 min): 1.07 nmole equivalents
1-OH ([4]; Human Prep D, w/NADPH, 60 min): 0.201 nmole equivalents
TAC ([4]; Human Prep D, w/NADPH, 60 min): 0.803 nmole equivalents
TAC ([4]; Human Prep D, w/out NADPH, 60 min): 1.086 nmole equivalents
extent of metabolism ([4]; human liver preparation D): only partial tacrine turnover
major product detected ([4]; human liver preparations): 1-hydroxytacrine with minor amounts of the 2- and 4-hydroxytacrine regioisomers
extent of metabolism ([4]; human liver preparations B and C, within 60 min): completely metabolized
effect on 1-hydroxytacrine metabolism by P4501A2 (P4501A2): inhibited
1-OH ([5]; I induced Rat, w/NADPH, 60 min): 1.57 nmole equivalents
POLAR UNKS ([5]; I induced Rat, w/NADPH, 60 min): 0.083 nmole equivalents
TAC ([5]; I induced Rat, 60 min): 1.14 nmole equivalents
1-OH [5, 9]: 0.790 nmole equivalents
4-OH [5, 9]: 0.018 nmole equivalents
POLAR UNKS [5, 9]: 0.009 nmole equivalents
UNKS [5, 9]: 0.091 nmole equivalents
TAC ([5]; MC induced Rat, 60 min): 1.16 nmole equivalents
1-OH [5, 10]: 0.994 nmole equivalents
2-OH [5, 10]: 0.088 nmole equivalents
POLAR UNKS [5, 10]: 0.022 nmole equivalents
TAC ([5]; Noninduced Rat, 60 min): 1.22 nmole equivalents
1-OH [5, 11]: 1.15 nmole equivalents
2-OH [5, 11]: 0.144 nmole equivalents
POLAR UNKS [5, 11]: 0.026 nmole equivalents
TAC ([5]; PB induced Rat, 60 min): 1.20 nmole equivalents
1-hydroxytacrine produced ([5]; rat vs human preparations): more 1-hydroxytacrine produced as compared to human preparations
tacrine-equivalents bound per mg hepatic protein (rat hepatocytes; 5 min, N = 2): 0.020 nmol
tacrine-equivalents bound per mg hepatic protein (rat hepatocytes; 15 min): 0.037 nmol
tacrine-equivalents bound per mg hepatic protein (rat hepatocytes; 30 min): 0.061 nmol
tacrine-equivalents bound per mg hepatic protein (rat hepatocytes; 60 min): 0.128 nmol
tacrine-equivalents bound per mg hepatic protein (rat hepatocytes; 90 min): 0.183 nmol
tacrine-equivalents bound per mg hepatic protein (rat hepatocytes; 120 min): 0.294 nmol
tacrine-equivalents bound per mg hepatic protein (rat hepatocytes; 180 min): 0.377 nmol
catalysis by P450 2D6 of metabolism and irreversible binding (P450 2D6): not catalyzed by P450 2D6
1-Hydroxytacrine (P450 2D6; 0 min): 0 nMoles per 3 mL incubate
Tacrine (P450 2D6; 0 min): 2.13 nMoles per 3 mL incubate
metabolites observed (P450 2D6; 7-hydroxytacrine at incubation times through 40 min): mainly 1-hydroxytacrine with 7-hydroxytacrine also being observed
1-Hydroxytacrine (P450 2D6; 5 min): 0.416 nMoles per 3 mL incubate
Tacrine (P450 2D6; 5 min): 1.24 nMoles per 3 mL incubate
1-Hydroxytacrine (P450 2D6; 10 min): 0.716 nMoles per 3 mL incubate
Tacrine (P450 2D6; 10 min): 0.831 nMoles per 3 mL incubate
1-Hydroxytacrine (P450 2D6; 20 min): 1.03 nMoles per 3 mL incubate
Tacrine (P450 2D6; 20 min): 0.302 nMoles per 3 mL incubate
1-Hydroxytacrine (P450 2D6; 40 min): 1.34 nMoles per 3 mL incubate
Tacrine (P450 2D6; 40 min): 0 nMoles per 3 mL incubate
1-Hydroxytacrine (P450 2D6; 60 min): 1.43 nMoles per 3 mL incubate
Tacrine (P450 2D6; 60 min): 0 nMoles per 3 mL incubate
extent of metabolism ([6]; animals and man): extensively metabolized
formation of THA metabolites in serum ([6]; patients given THA): very rapid formation of THA metabolites
liver enzymes after administration ([6]; patients): elevations of liver enzymes are found in some patients
detection of a hydroxylamine metabolite [7]: unsuccessful
irreversible binding of 14C-tacrine-derived radioactivity to microsomal protein [7]: no detectable
rate and products of metabolism [7]: rapidly metabolized not only to 1-hydroxytacrine but also to 7-hydroxytacrine
